Experimental data published in patent publication US20230146455A1, “TREATMENT OF INFLAMMATORY DISEASES WITH PEPTIDES AND PHARMACEUTICAL COMPOSITIONS” (Yuyu Pharma, Inc., priority 2020, published 2023).
“And” between values parts separate entries of the source, which are not always exact repeats. Equal entries are not always repeated. Where a SMILES comes first, the peptide text is derived from it. [ ]: non-standard residue; d: D form. Hyp = O=C(O)[C@@H]1C[C@@H](O)CN1

System: human PBMCs
Assay: PBMC cell counts (total, live, viability; trypan blue, Countess) with and without LPS and test articles (Example 9)
Format: cell-based
Method in brief: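 Human PBMCs were pretreated 2 h with test articles (0.001–100 uM) or 0.5% DMSO vehicle, then given LPS at 5 ug/ml or no LPS, in triplicate. After 24 hr, total and live cells and viability were counted by 1:1 trypan blue staining on an automated counter.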

[1] = PBMC + LPS(5 ug/ml) + compound 0.001 uM, 24 hr
[2] = PBMC + LPS(5 ug/ml) + compound 0.01 uM, 24 hr
[3] = PBMC + LPS(5 ug/ml) + compound 0.1 uM, 24 hr
[4] = PBMC + LPS(5 ug/ml) + compound 1 uM, 24 hr
[5] = PBMC + LPS(5 ug/ml) + compound 10 uM, 24 hr
[6] = PBMC + LPS(5 ug/ml) + compound 100 uM, 24 hr
[7] = PBMC + LPS(5 ug/ml) + test article 0.001 uM, Mean
[8] = PBMC + LPS(5 ug/ml) + test article 0.001 uM, single replicates
[9] = PBMC + LPS(5 ug/ml) + test article 0.01 uM, Mean
[10] = PBMC + LPS(5 ug/ml) + test article 0.01 uM, single replicates
[11] = PBMC + LPS(5 ug/ml) + test article 0.1 uM, Mean
[12] = PBMC + LPS(5 ug/ml) + test article 0.1 uM, single replicates
[13] = PBMC + LPS(5 ug/ml) + test article 1 uM, Mean
[14] = PBMC + LPS(5 ug/ml) + test article 1 uM, single replicates
[15] = PBMC + LPS(5 ug/ml) + test article 10 uM, Mean
[16] = PBMC + LPS(5 ug/ml) + test article 10 uM, single replicates
[17] = PBMC + LPS(5 ug/ml) + test article 100 uM, Mean
[18] = PBMC + LPS(5 ug/ml) + test article 100 uM, single replicates
[19] = PBMC + LPS(5 ug/ml), test article 0.001 uM, Mean
[20] = PBMC + LPS(5 ug/ml), test article 0.001 uM, single replicates
[21] = PBMC + LPS(5 ug/ml), test article 0.01 uM, Mean
[22] = PBMC + LPS(5 ug/ml), test article 0.01 uM, single replicates
[23] = PBMC + LPS(5 ug/ml), test article 0.1 uM, Mean
[24] = PBMC + LPS(5 ug/ml), test article 0.1 uM, single replicates
[25] = PBMC + LPS(5 ug/ml), test article 1 uM, Mean
[26] = PBMC + LPS(5 ug/ml), test article 1 uM, single replicates
[27] = PBMC + LPS(5 ug/ml), test article 10 uM, Mean
[28] = PBMC + LPS(5 ug/ml), test article 10 uM, single replicates
[29] = PBMC + LPS(5 ug/ml), test article 100 uM, Mean
[30] = PBMC + LPS(5 ug/ml), test article 100 uM, single replicates

In the case of `CC(C)C[C@H](NC(=O)CNC(=O)[C@H](CC(C)C)NC(=O)[C@H](CCC(N)=O)NC(=O)CNC(=O)[C@@H]1C[C@@H](O)CN1)C(=O)N[C@@H](C)C(=O)NCC(=O)N1CCC[C@H]1C(=O)N[C@@H](CCCCN)C(=O)O` [YDE-011] (H-[Hyp]GQLGLAGPK-OH), the Live cell [1] was 5.4 ± 0.4 10^5/ml, the Total cell [1] was 6.3 ± 0.2 10^5/ml and the Live cell [2] was 5.9 ± 0.4 10^5/ml. The Total cell [2] was 7.3 ± 0.4 10^5/ml, the Live cell [3] was 5.8 ± 0.5 10^5/ml and the Total cell [3] was 7.1 ± 0.7 10^5/ml. For the same molecule, the Live cell [4] was 5.0 ± 0.2 10^5/ml, the Total cell [4] was 6.4 ± 0.3 10^5/ml and the Live cell [5] was 5.3 ± 0.3 10^5/ml. The Total cell [5] was 6.0 ± 0.4 10^5/ml, the Live cell [6] was 6.1 ± 0.0 10^5/ml and the Total cell [6] was 8.2 ± 0.4 10^5/ml. The Live cell [7] was 5.4 10^5/ml, the “Live cell (10^5/ml)” value [7] was 5.4 10^5/ml and the “Live cell, Mean” value [7] was 5.4 10^5/ml. For the same molecule, the Live cell (PBMC + LPS(5 ug/ml) + test article 0.001 uM, individual replicates) was 4.5 10^5/ml and 5.8 10^5/ml (2×), the Live cell (PBMC + LPS(5 ug/ml) + test article 0.001 uM, individual replicates (1st, 2nd, 3rd)) was 4.5 10^5/ml and 5.8 10^5/ml (2×) and the Live cell [8] was 4.5 10^5/ml and 5.8 10^5/ml (2×). For the same molecule, the “Live cell (10^5/ml)” value [8] was 4.5 10^5/ml and 5.8 10^5/ml (2×), the Live cell (PBMC + LPS(5 ug/ml) + test article 0.001 uM, single replicates (1st, 2nd, 3rd)) was 4.5 10^5/ml and 5.8 10^5/ml (2×) and the Live cell [9] was 5.9 10^5/ml. The “Live cell (10^5/ml)” value [9] was 5.9 10^5/ml, the “Live cell, Mean” value [9] was 5.9 10^5/ml and the Live cell (PBMC + LPS(5 ug/ml) + test article 0.01 uM, individual replicates) was 6.2 10^5/ml and 5.1 10^5/ml and 6.3 10^5/ml. The Live cell (PBMC + LPS(5 ug/ml) + test article 0.01 uM, individual replicates (1st, 2nd, 3rd)) was 6.2 10^5/ml and 5.1 10^5/ml and 6.3 10^5/ml, the Live cell [10] was 6.3 10^5/ml and 6.2 10^5/ml and 5.1 10^5/ml and the “Live cell (10^5/ml)” value [10] was 6.3 10^5/ml and 6.2 10^5/ml and 5.1 10^5/ml. For the same molecule, the Live cell (PBMC + LPS(5 ug/ml) + test article 0.01 uM, single replicates (1st, 2nd, 3rd)) was 6.2 10^5/ml and 5.1 10^5/ml and 6.3 10^5/ml, the Live cell [11] was 5.8 10^5/ml and the “Live cell (10^5/ml)” value [11] was 5.8 10^5/ml. For the same molecule, the “Live cell, Mean” value [11] was 5.8 10^5/ml, the Live cell (PBMC + LPS(5 ug/ml) + test article 0.1 uM, individual replicates) was 6.6 10^5/ml and 5.0 10^5/ml and 5.7 10^5/ml and the Live cell (PBMC + LPS(5 ug/ml) + test article 0.1 uM, individual replicates (1st, 2nd, 3rd)) was 6.6 10^5/ml and 5.0 10^5/ml and 5.7 10^5/ml. The Live cell [12] was 6.6 10^5/ml and 5.0 10^5/ml and 5.7 10^5/ml, the “Live cell (10^5/ml)” value [12] was 6.6 10^5/ml and 5.0 10^5/ml and 5.7 10^5/ml and the Live cell (PBMC + LPS(5 ug/ml) + test article 0.1 uM, single replicates (1st, 2nd, 3rd)) was 6.6 10^5/ml and 5.0 10^5/ml and 5.7 10^5/ml. The Live cell [13] was 5.0 10^5/ml, the “Live cell (10^5/ml)” value [13] was 5.0 10^5/ml and the “Live cell, Mean” value [13] was 5.0 10^5/ml. For the same molecule, the Live cell (PBMC + LPS(5 ug/ml) + test article 1 uM, individual replicates) was 5.5 10^5/ml and 4.8 10^5/ml (2×), the Live cell (PBMC + LPS(5 ug/ml) + test article 1 uM, individual replicates (1st, 2nd, 3rd)) was 5.5 10^5/ml and 4.8 10^5/ml (2×) and the Live cell [14] was 5.5 10^5/ml and 4.8 10^5/ml (2×). The “Live cell (10^5/ml)” value [14] was 5.5 10^5/ml and 4.8 10^5/ml (2×), the Live cell (PBMC + LPS(5 ug/ml) + test article 1 uM, single replicates (1st, 2nd, 3rd)) was 5.5 10^5/ml and 4.8 10^5/ml (2×) and the Live cell [15] was 5.3 10^5/ml. The “Live cell (10^5/ml)” value [15] was 5.3 10^5/ml, the “Live cell, Mean” value [15] was 5.3 10^5/ml and the Live cell (PBMC + LPS(5 ug/ml) + test article 10 uM, individual replicates) was 5.4 10^5/ml and 5.8 10^5/ml and 4.7 10^5/ml. The Live cell (PBMC + LPS(5 ug/ml) + test article 10 uM, individual replicates (1st, 2nd, 3rd)) was 5.4 10^5/ml and 5.8 10^5/ml and 4.7 10^5/ml, the Live cell [16] was 5.4 10^5/ml and 5.8 10^5/ml and 4.7 10^5/ml and the “Live cell (10^5/ml)” value [16] was 5.4 10^5/ml and 5.8 10^5/ml and 4.7 10^5/ml. For the same molecule, the Live cell (PBMC + LPS(5 ug/ml) + test article 10 uM, single replicates (1st, 2nd, 3rd)) was 5.4 10^5/ml and 5.8 10^5/ml and 4.7 10^5/ml, the Live cell [17] was 6.1 10^5/ml and the “Live cell (10^5/ml)” value [17] was 6.1 10^5/ml. For the same molecule, the “Live cell, Mean” value [17] was 6.1 10^5/ml, the Live cell (PBMC + LPS(5 ug/ml) + test article 100 uM, individual replicates) was 6.1 10^5/ml (2×) and 6.0 10^5/ml and the Live cell (PBMC + LPS(5 ug/ml) + test article 100 uM, individual replicates (1st, 2nd, 3rd)) was 6.1 10^5/ml (2×) and 6.0 10^5/ml. For the same molecule, the Live cell [18] was 6.1 10^5/ml (2×) and 6.0 10^5/ml, the “Live cell (10^5/ml)” value [18] was 6.1 10^5/ml (2×) and 6.0 10^5/ml and the Live cell (PBMC + LPS(5 ug/ml) + test article 100 uM, single replicates (1st, 2nd, 3rd)) was 6.1 10^5/ml (2×) and 6.0 10^5/ml. For the same molecule, the Live cell (PBMC + LPS(5 ug/ml), 0.001 uM, Mean) was 5.4 10^5/ml, the Live cell (PBMC + LPS(5 ug/ml), 0.001 uM, single replicates) was 4.5 10^5/ml and 5.8 10^5/ml (2×) and the Live cell (PBMC + LPS(5 ug/ml), 0.01 uM, Mean) was 5.9 10^5/ml. For the same molecule, the Live cell (PBMC + LPS(5 ug/ml), 0.01 uM, single replicates) was 6.2 10^5/ml and 5.1 10^5/ml and 6.3 10^5/ml, the Live cell (PBMC + LPS(5 ug/ml), 0.1 uM, Mean) was 5.8 10^5/ml and the Live cell (PBMC + LPS(5 ug/ml), 0.1 uM, single replicates) was 6.6 10^5/ml and 5.0 10^5/ml and 5.7 10^5/ml. The Live cell (PBMC + LPS(5 ug/ml), 1 uM, Mean) was 5.0 10^5/ml, the Live cell (PBMC + LPS(5 ug/ml), 1 uM, single replicates) was 5.5 10^5/ml and 4.8 10^5/ml (2×) and the Live cell (PBMC + LPS(5 ug/ml), 10 uM, Mean) was 5.3 10^5/ml. The Live cell (PBMC + LPS(5 ug/ml), 10 uM, single replicates) was 5.4 10^5/ml and 5.8 10^5/ml and 4.7 10^5/ml, the Live cell (PBMC + LPS(5 ug/ml), 100 uM, Mean) was 6.1 10^5/ml and the Live cell (PBMC + LPS(5 ug/ml), 100 uM, single replicates) was 6.1 10^5/ml (2×) and 6.0 10^5/ml. For the same molecule, the Live cell [19] was 5.4 10^5/ml, the Total cell count [19] was 6.3 10^5/ml and the Live cell [20] was 4.5 10^5/ml and 5.8 10^5/ml (2×). The Total cell count [20] was 5.9 10^5/ml and 6.3 10^5/ml and 6.6 10^5/ml, the Viability [20] was 75.0% and 92.0% and 88.0% and the Live cell [21] was 5.9 10^5/ml. For the same molecule, the Total cell count [21] was 7.3 10^5/ml, the Live cell [22] was 6.3 10^5/ml and 6.2 10^5/ml and 5.1 10^5/ml and the Total cell count [22] was 7.6 10^5/ml and 7.8 10^5/ml and 6.4 10^5/ml. For the same molecule, the Viability [22] was 79.0%, the Live cell [23] was 5.8 10^5/ml and the Total cell count [23] was 7.1 10^5/ml. For the same molecule, the Live cell [24] was 6.6 10^5/ml and 5.0 10^5/ml and 5.7 10^5/ml, the Total cell count [24] was 7.8 10^5/ml and 5.7 10^5/ml and 7.7 10^5/ml and the Viability [24] was 85.0% and 87.0% and 74.0%. The Live cell [25] was 5.0 10^5/ml, the Total cell count [25] was 6.4 10^5/ml and the Live cell [26] was 5.5 10^5/ml and 4.8 10^5/ml. For the same molecule, the Total cell count [26] was 6.2 10^5/ml and 7.0 10^5/ml and 5.9 10^5/ml, the Viability [26] was 89.0% and 69.0% and 81.0% and the Live cell [27] was 5.3 10^5/ml. For the same molecule, the Total cell count [27] was 6.0 10^5/ml, the Live cell [28] was 5.4 10^5/ml and 5.8 10^5/ml and 4.7 10^5/ml and the Total cell count [28] was 5.9 10^5/ml and 6.7 10^5/ml and 5.4 10^5/ml. For the same molecule, the Viability [28] was 91.0% and 86.0% and 88.0%, the Live cell [29] was 6.1 10^5/ml and the Total cell count [29] was 8.2 10^5/ml. The Live cell [30] was 6.1 10^5/ml (2×) and 6.0 10^5/ml, the Total cell count [30] was 7.6 10^5/ml and 8.1 10^5/ml and 9.0 10^5/ml and the Viability [30] was 81.0% and 75.0% and 67.0%. The “which treatments consistently affected the total and live number of PBMCs or the percent viability (in words)” value (up to 100 μM, 24-hour treatment) was “none of”.
